In brackets after ≈: the same amount, converted by molar mass.
Legend:
[1] = test system: Becap37 (human breast cancer cell); test: Solid tumor cell growth inhibition, MTT, 72 h (Example 7); assay type: cell-based; conditions: Homo sapiens; 72 h, MTT, Becap-37
How it was run: (§1)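 A 72 h MTT assay: cells (4000/well, 24 h pre-culture in DMEM high glucose with 10% FBS at 37 °C, 5% CO2) were treated with graded concentrations of derivatives, and viability was calculated as % of untreated control.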

A549 (human lung cancer) = test: as above; assay type: cell-based; conditions: Homo sapiens; 72 h, MTT, A549
How it was run: as §1

[2] = test system: RKO (human colon adenocarcinoma cell); test: as above; assay type: cell-based; conditions: Homo sapiens; 72 h, MTT, RKO
How it was run: as §1

[3] = test system: MGC 803 (human gastric cancer cell); test: as above; assay type: cell-based; conditions: Homo sapiens
How it was run: as §1

[4] = test system: Huh7 (human liver cancer cell); test: as above; assay type: cell-based; conditions: Homo sapiens; 72 h, MTT, Huh-7
How it was run: as §1

[5] = test system: RPMI8226 (multiple myeloma); test: Multiple myeloma cell growth inhibition, MTT, 72 h (Example 6); assay type: cell-based, human; conditions: Homo sapiens, RPMI-8226; 72 h, MTT, RPMI8226
How it was run: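 RPMI8226 cells (6000 per well) in RPMI 1640 with 10% FBS were exposed to a range of tetrandrine derivative concentrations for 72 h at 37 °C under 5% CO2. Viable cell concentration was then measured by MTT.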

[6] = test system: K562/adr (drug-resistant, chronic myeloid leukemia, CML); test: Leukemia cell growth inhibition, MTT, 72 h (Example 5); assay type: cell-based, human; conditions: Homo sapiens, K562/Adr; 72 h, MTT
How it was run: (§2)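 Growth inhibition by tetrandrine derivatives, dosed at several concentrations, was assessed via MTT after a 72-hour culture at 37° C.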

[7] = test system: H9 (acute lymphoblastic leukemia, ALL); test: as above; assay type: cell-based, human; conditions: Homo sapiens; 72 h, MTT
How it was run: as §2

[8] = test system: Kasumi-1 (acute myeloid leukemia M2 type, AML-M2); test: as above; assay type: cell-based, human; conditions: Homo sapiens, Kasumi 1
How it was run: as §2

[9] = test system: NB4 (acute promyelocytic leukemia, AML); test: as above; assay type: cell-based, human; conditions: Homo sapiens; 72 h, MTT
How it was run: as §2

[10] = test system: Jurkat (acute lymphoblastic leukemia, ALL); test: as above; assay type: cell-based, human; conditions: Homo sapiens, Jurkat; 72 h, MTT
How it was run: as §2

MG63 (osteosarcoma) = test: Solid tumor cell growth inhibition, MTT, 72 h (Example 7); assay type: cell-based, human; conditions: Homo sapiens; 72 h, MTT, MG-63
How it was run: as §1

PC-3 (prostate cancer) = test: as above; assay type: cell-based, human; conditions: Homo sapiens; 72 h, MTT, PC-3
How it was run: as §1

[11] = test system: PANC-1 (pancreatic cancer); test: as above; assay type: cell-based, human; conditions: Homo sapiens; 72 h, MTT, PANC-1
How it was run: as §1

[12] = test system: CaES-17 (esophageal cancer cell); test: as above; assay type: cell-based, human; conditions: Homo sapiens, CaEs17; 72 h, MTT, CAES-17
How it was run: as §1

Structure (SMILES) | IC50 [1] [µg/mL] | IC90 [1] [µg/mL] | IC50 (A549 (human lung cancer)) [µg/mL] | IC90 (A549 (human lung cancer)) [µg/mL] | IC50 [2] [µg/mL] | IC90 [2] [µg/mL] | IC50 [3] [µg/mL] | IC90 [3] [µg/mL] | IC50 [4] [µg/mL] | IC90 [4] [µg/mL] | IC50 [5] [µg/mL] | IC90 [5] [µg/mL] | IC50 [6] [µg/mL] | IC90 [6] [µg/mL] | IC50 [7] [µg/mL] | IC90 [7] [µg/mL] | IC50 [8] [µg/mL] | IC90 [8] [µg/mL] | IC50 [9] [µg/mL] | IC90 [9] [µg/mL] | further results
COc1ccc2cc1Oc1ccc(cc1)C[C@H]1c3cc(c(OC)cc3CCN1C)Oc1c(OC)c(OC)c(CN3CCN(CCO)CC3)c3c1[C@H](C2)N(C)CC3 [BS-TE-334] | 3.09 (≈ 4.04 µM) | 8.39 (≈ 11 µM) | 4 (≈ 5.23 µM) | 14.6 (≈ 19.1 µM) | 0.82 (≈ 1.07 µM) | 2.04 (≈ 2.67 µM) | 2.22 (≈ 2.9 µM) | 10 (≈ 13.1 µM) | 2.55 (≈ 3.33 µM) | 4.38 (≈ 5.73 µM) | 0.05 (≈ 0.0654 µM) | 1.11 (≈ 1.45 µM) | 1.49 (≈ 1.95 µM) | 5.99 (≈ 7.83 µM) | 1.3 (≈ 1.7 µM) | 2.4 (≈ 3.14 µM) | 1.06 (≈ 1.39 µM) | 3.64 (≈ 4.76 µM) | > 16 | > 16 | IC50 [10]: 1.88 µg/mL (≈ 2.46 µM); IC90 [10]: 7.85 µg/mL (≈ 10.3 µM); IC50 (MG63 (osteosarcoma)): 0.84 µg/mL (≈ 1.1 µM); IC90 (MG63 (osteosarcoma)): 2.44 µg/mL (≈ 3.19 µM); IC50 (PC-3 (prostate cancer)): 3.35 µg/mL (≈ 4.38 µM); IC90 (PC-3 (prostate cancer)): 6.05 µg/mL (≈ 7.91 µM); IC50 [11]: 3.99 µg/mL (≈ 5.22 µM); IC90 [11]: 11 µg/mL (≈ 14.4 µM); IC50 [12]: 2.35 µg/mL (≈ 3.07 µM); IC90 [12]: 21.5 µg/mL (≈ 28.1 µM)
COc1ccc2cc1Oc1ccc(cc1)C[C@H]1c3cc(c(OC)cc3CCN1C)Oc1c(OC)c(OC)c(COC(C)=O)c3c1[C@H](C2)N(C)CC3 [BS-TE-223] | 6.77 (≈ 9.74 µM) | 15 (≈ 21.6 µM) | 4.45 (≈ 6.4 µM) | 14.2 (≈ 20.4 µM) | 4.23 (≈ 6.09 µM) | 7.5 (≈ 10.8 µM) | 3.54 (≈ 5.09 µM) | 38.1 (≈ 54.8 µM) | 4.14 (≈ 5.96 µM) | 7.97 (≈ 11.5 µM) | 0.23 (≈ 0.331 µM) | 2.29 (≈ 3.3 µM) | 0.5 (≈ 0.72 µM) | 9.91 (≈ 14.3 µM) | 4.19 (≈ 6.03 µM) | 8.89 (≈ 12.8 µM) | 2 (≈ 2.88 µM) | 8 (≈ 11.5 µM) | 2.57 (≈ 3.7 µM) | 7.42 (≈ 10.7 µM) | IC50 [10]: 3.42 µg/mL (≈ 4.92 µM); IC90 [10]: 11.3 µg/mL (≈ 16.2 µM); IC50 (MG63 (osteosarcoma)): 5.13 µg/mL (≈ 7.38 µM); IC90 (MG63 (osteosarcoma)): 7.64 µg/mL (≈ 11 µM); IC50 (PC-3 (prostate cancer)): 5.6 µg/mL (≈ 8.06 µM); IC90 (PC-3 (prostate cancer)): 28 µg/mL (≈ 40.3 µM); IC50 [11]: 10.7 µg/mL (≈ 15.4 µM); IC90 [11]: 16 µg/mL (≈ 23 µM); IC50 [12]: 9.8 µg/mL (≈ 14.1 µM); IC90 [12]: 37.5 µg/mL (≈ 54 µM)
COc1ccc2cc1Oc1ccc(cc1)C[C@H]1c3cc(c(OC)cc3CCN1C)Oc1c(OC)c(OC)c(CNCC(C)O)c3c1[C@H](C2)N(C)CC3 (stereo partly drawn) [BS-TE-315] | 2.95 (≈ 4.16 µM) | 9.79 (≈ 13.8 µM) | 1.96 (≈ 2.76 µM) | 9.36 (≈ 13.2 µM) | 1.64 (≈ 2.31 µM) | 3.39 (≈ 4.78 µM) | 3.63 (≈ 5.11 µM) | 10.5 (≈ 14.7 µM) | 3.07 (≈ 4.32 µM) | 4.98 (≈ 7.02 µM) | 0.3 (≈ 0.423 µM) | 2.07 (≈ 2.92 µM) | 4.78 (≈ 6.73 µM) | 10.4 (≈ 14.7 µM) | 2.6 (≈ 3.66 µM) | 4.83 (≈ 6.8 µM) | 1.99 (≈ 2.8 µM) | 7.72 (≈ 10.9 µM) | 1.63 (≈ 2.3 µM) | 5.66 (≈ 7.97 µM) | IC50 [10]: 4.53 µg/mL (≈ 6.38 µM); IC90 [10]: 11 µg/mL (≈ 15.6 µM); IC50 (MG63 (osteosarcoma)): 1.41 µg/mL (≈ 1.99 µM); IC90 (MG63 (osteosarcoma)): 3.11 µg/mL (≈ 4.38 µM); IC50 (PC-3 (prostate cancer)): 6.41 µg/mL (≈ 9.03 µM); IC90 (PC-3 (prostate cancer)): 8 µg/mL (≈ 11.3 µM); IC50 [11]: 5.89 µg/mL (≈ 8.3 µM); IC90 [11]: 14.7 µg/mL (≈ 20.7 µM); IC50 [12]: 2.4 µg/mL (≈ 3.38 µM); IC90 [12]: 20.8 µg/mL (≈ 29.4 µM)
COCCCNCc1c2c3c(c(OC)c1OC)Oc1cc4c(cc1OC)CCN(C)[C@H]4Cc1ccc(cc1)Oc1cc(ccc1OC)C[C@@H]3N(C)CC2 [BS-TE-340] | 1.99 (≈ 2.75 µM) | 4.12 (≈ 5.69 µM) | 2.36 (≈ 3.26 µM) | 6.66 (≈ 9.2 µM) | 1.29 (≈ 1.78 µM) | 2.45 (≈ 3.38 µM) | 2.34 (≈ 3.23 µM) | 5.54 (≈ 7.65 µM) | 2.52 (≈ 3.48 µM) | 4.85 (≈ 6.7 µM) | 0.18 (≈ 0.249 µM) | 0.999 (≈ 1.38 µM) | 0.98 (≈ 1.35 µM) | 2.39 (≈ 3.3 µM) | 1.93 (≈ 2.67 µM) | 3.23 (≈ 4.46 µM) | 0.66 (≈ 0.912 µM) | 1.8 (≈ 2.49 µM) | 1.07 (≈ 1.48 µM) | 2.87 (≈ 3.96 µM) | IC50 [10]: 2.24 µg/mL (≈ 3.09 µM); IC90 [10]: 4 µg/mL (≈ 5.53 µM); IC50 (MG63 (osteosarcoma)): 0.6 µg/mL (≈ 0.829 µM); IC90 (MG63 (osteosarcoma)): 1.19 µg/mL (≈ 1.64 µM); IC50 (PC-3 (prostate cancer)): 3.43 µg/mL (≈ 4.74 µM); IC90 (PC-3 (prostate cancer)): 4 µg/mL (≈ 5.53 µM); IC50 [11]: 3.61 µg/mL (≈ 4.99 µM); IC90 [11]: 5.72 µg/mL (≈ 7.9 µM); IC50 [12]: 1.83 µg/mL (≈ 2.53 µM); IC90 [12]: 7.21 µg/mL (≈ 9.96 µM)

From US9133207B2, “Tetrandrine derivatives with substituted 5-carbon, preparation method and use thereof” (Hangzhou Bensheng Pharmaceutical Co., Ltd., priority 2011, dated 2015)
